Data published in patent US8809356B2, “Inhibitors of NEDD8-activating enzyme” (Millennium Pharmaceuticals, Inc., priority 2011, dated 2014).

Assays:
[1] = Pharmacokinetic parameters (plasma AUC) after single subcutaneous administration in HCT116 xenograft mice; format: in vivo; details: I-216 at 10 mg/kg, female Ncr nude mice bearing HCT116 tumor xenografts
NAE = biological target: T1, NAE (Homo sapiens, UniProt Q8TBC4); test: In vivo Tumor Pharmacodynamic Model (neddylated cullins in HCT116 tumor xenografts); set-up: species or system female Ncr nude mice; details: expected from the pharmacodynamic and pharmacokinetic figures (FIGS. 1-3)
T1 construct: endogenous in cells; host or cells: HCT116 (ATCC CCL-247) subcutaneous tumour xenografts in female Ncr nude mice
T1 sequence (Q8TBC4 1-463): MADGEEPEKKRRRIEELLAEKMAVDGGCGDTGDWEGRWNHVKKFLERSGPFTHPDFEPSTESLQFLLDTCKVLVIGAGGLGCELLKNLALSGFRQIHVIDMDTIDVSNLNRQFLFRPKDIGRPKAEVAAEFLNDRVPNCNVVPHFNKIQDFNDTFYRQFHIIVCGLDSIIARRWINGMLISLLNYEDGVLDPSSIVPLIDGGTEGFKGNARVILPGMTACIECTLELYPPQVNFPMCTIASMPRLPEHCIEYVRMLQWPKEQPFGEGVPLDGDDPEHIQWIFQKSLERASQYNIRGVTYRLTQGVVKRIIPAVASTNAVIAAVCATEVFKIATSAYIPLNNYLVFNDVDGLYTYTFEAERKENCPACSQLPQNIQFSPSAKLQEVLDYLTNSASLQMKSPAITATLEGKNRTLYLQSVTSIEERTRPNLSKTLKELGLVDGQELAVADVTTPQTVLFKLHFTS
T1 sequence (Q13564 1-534 partner): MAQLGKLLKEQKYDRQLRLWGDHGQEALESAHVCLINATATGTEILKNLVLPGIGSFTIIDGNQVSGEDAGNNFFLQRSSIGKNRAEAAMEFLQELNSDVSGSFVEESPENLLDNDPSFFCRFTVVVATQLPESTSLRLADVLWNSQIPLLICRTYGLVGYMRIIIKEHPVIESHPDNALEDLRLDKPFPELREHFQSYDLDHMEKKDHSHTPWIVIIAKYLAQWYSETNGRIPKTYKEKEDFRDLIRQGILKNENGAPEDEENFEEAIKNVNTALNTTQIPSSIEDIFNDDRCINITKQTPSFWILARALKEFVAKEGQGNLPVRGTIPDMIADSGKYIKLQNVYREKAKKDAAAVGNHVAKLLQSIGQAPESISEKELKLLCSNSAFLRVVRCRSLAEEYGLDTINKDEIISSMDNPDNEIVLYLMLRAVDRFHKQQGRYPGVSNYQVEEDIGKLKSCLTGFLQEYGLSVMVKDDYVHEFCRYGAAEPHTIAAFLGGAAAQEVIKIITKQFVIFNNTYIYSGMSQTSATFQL
Method: HCT116 tumor cells (2×10^6) (ATCC #CCL-247) in 100 μL phosphate buffered saline were aseptically injected into the subcutaneous space in the right dorsal flank of female Ncr nude mice (age 5-8 weeks, Charles River) using a 26-gauge needle. Beginning on day 7 after inoculation, tumors were measured twice weekly using a vernier caliper. Tumor volumes were calculated using standard procedures (0.5×(length×width^2)). When the tumors reached a volume of approximately 3-700 mm^3 mice were randomized into groups and injected subcutaneously with compound inhibitor (200 μL) at various doses. Tumors were harvested and crushed in Covaris bags and then transferred to glass tubes on dry ice for sonication in the Covaris E200. […] Supernatants were transferred to new tubes and protein concentrations were determined using the Pierce bicinchoninic acid (BCA) reagents and protein standards. […]
For quantitative analysis of neddylated cullins the procedure was as follows: 20 μg of tumor lysate with lithium dodecyl sulfate (LDS) loading buffer and sample reducing agent (Invitrogen NP0007 and NP0004) was loaded onto 4-12% bis-tris gels, […], 10 well gels (Invitrogen NP0315Box). […] Quantitation of signals on Western blots was performed with the Odyssey software.

Which results are given for `CO[C@H]1Cc2cc(Cl)ccc2[C@H]1Nc1cc(O[C@@H]2C[C@@H](COS(N)(=O)=O)[C@@H](O)C2)ncn1` [I-216, {(1S,2S,4R)-4-[(6-{[(1R,2S)-5-chloro-2-methoxy-2,3-dihydro-1H-inden-1-yl]amino}pyrimidin-4-yl)oxy]-2-hydroxycyclopentyl}methyl sulfamate]?
plasma AUC compared with I-115 at 30 mg/kg [1]: comparable to that observed for I-115 administered at 30 mg/kg; plasma AUC compared with I-216 at 30 mg/kg [1]: approximately half the AUC observed for I-216 administered at 30 mg/kg; potency as inhibitor of NAE relative to I-115 (NAE): 2- to 3 fold
